Measured values published in US9447119B2, “Chemical compound for inhibiting the growth and proliferation of human liver cancer cells HepG2 and method for synthesizing it” (priority 2015, dated 2016).
In brackets after ≈: the same amount, converted by molar mass.

Key:
[1] = test system: HepG2 (Hepatocellular carcinoma cells); test: Cytotoxicity evaluation using viability assay (crystal violet) against HepG2 cell line; format: cell-based, human; conditions: 48 hours
[2] = test system: HepG2 (Hepatocellular carcinoma cells); test: as above; format: cell-based, human; conditions: for Viability %: 48 hours; for IC50: Homo sapiens, HepG2 cells, 48 hours incubation, crystal violet viability, read-out: inhibition concentration value (IC50) against HepG2
From the text: HepG2 cells (human cell line of a well differentiated hepatocellular carcinoma isolated from a liver biopsy of a person) were obtained from the American Type Culture Collection (ATCC). The chemicals used were: Dimethyl sulfoxide (DMSO), crystal violet and trypan blue dye, purchased from Sigma, St. Louis, Mo., USA; DMEM, RPMI-1640, FBS, HEPES buffer solution, L-glutamine, gentamycin and 0.25% Trypsin-EDTA, purchased from BioWhittaker®, Lonza, Belgium; and Crystal violet stain (1%), composed of 0.5% (w/v) crystal violet and 50% methanol, made up to volume with ddH20 and filtered through a Whatmann No. I filter paper.
In the cytotoxicity assay, the cells were propagated in Dulbecco's modified Eagle's medium (DMEM) supplemented with 10% heat-inactivated fetal bovine serum, 1% L-glutamine, HEPES buffer and 50 μg/ml gentamycin. All cells were maintained at 37° C. in a humidified atmosphere with 5% C02 and were subcultured two times a week.
Cell toxicity was monitored by determining the effect of the test samples on cell morphology and cell viability.
For cytotoxicity assay, the cells were seeded in a 96-well plate at a cell concentration of 1×10^4 cells per well in 100 μl of growth medium. Fresh medium containing different concentrations of the test sample was added after 24 hours following seeding. Serial two-fold dilutions of the tested chemical compound were added to confluent cell monolayers dispensed into 96-well, flat-bottomed microtiter plates (Falcon, N.J., USA) using a multichannel pipette. The microtiter plates were incubated at 37° C. in a humidified incubator with 5% C02 for a period of 48 hours. Three wells were used for each concentration of the test sample. Control cells were incubated without test sample and with or without DMSO. The little percentage of DMSO present in the wells (maximal 0.1%) was found not to affect the experiment. After incubation of the cells for 24 hours at 37° C., various concentrations of sample (50, 25, 12.5, 6.25, 3.125 & 1.56 μg) were added, and the incubation was continued for 48 hours and viable cells yield was determined by a colorimetric method.
In brief, after the end of the incubation period, media were aspirated and the crystal violet solution (1%) was added to each well for at least 30 minutes. The stain was removed and the plates were rinsed using tap water until all excess stain was removed. Glacial acetic acid (30%) was then added to all wells and mixed thoroughly and then the absorbance of the plates was measured after being gently shaken on a Microplate reader (TECAN, Inc.), using a test wavelength of 490 nm. All results were corrected for background absorbance detected in wells without added stain. Treated samples were compared with the cell control in the absence of the tested compounds. All experiments were carried out in triplicate.
The cell cytotoxic effect of each tested compound was calculated according to the rapid colorimetric assay for cellular growth and survival: application to proliferation and cytotoxicity assay, published by T. Mosmann in the Journal of Immunology Methods, 1983, 65:55-63; and the antiviral activity of medicinal plants of Nilgriris, published by P. Vijayan et al. in the Indian Journal of Medical Research, 2004, 120: 24-29.

Structure (SMILES) | Viability % ([1]; HepG2, sample conc. 0.78 μg) | Viability % ([2]; HepG2, sample conc. 1.56 μg) | Viability % ([2]; HepG2, sample conc. 3.125 μg) | Viability % ([2]; HepG2, sample conc. 6.25 μg) | Viability % ([2]; HepG2, sample conc. 12.5 μg) | Viability % ([2]; HepG2, sample conc. 25 μg) | Viability % ([2]; HepG2, sample conc. 50 μg) | IC50 [2] | Viability % ([1]; HepG2, sample conc. 0.39 μg) | melting point
COc1cccc2c1C(=O)c1c(O)c3c(c(O)c1C2=O)C[C@@](O)(C(=O)CO)C[C@@H]3O[C@H]1C[C@H](N)[C@H](O)[C@H](C)O1 [Doxorubicin, reference compound] | 57.44% | 48.25% | 30.32% | 21.03% | 16.90% | 14.29% | 10.95% | 1.2 µg/mL (≈ 2.21 µM) | – | –
O=c1c2c3c(sc2nc2sc(Nc4ccc([N+](=O)[O-])cc4)nn12)CCCCC3 [compound of the invention, 2-((4-Nitrophenyl)amino)-7,8,9,10-tetrahydrocyclohepta[4,5]thieno[2,3-d][1,3,4]thiadiazolo[3,2-a]pyrimidin-11(6H)-one] | 45.74% | 32.86% | 23.17% | 13.92% | 10.04% | 7.52% | 3.79% | 0.7 µg/mL (≈ 1.69 µM) | 64.21% | > 300 °C
